Source: patent US20250120967A1, “TYROSINE KINASES INHIBITORS AND USES THEREOF” (GREAT NOVEL THERAPEUTICS BIOTECH & MEDICALS CORPORATION, priority 2023, published 2025)

How the values were obtained:
AXL = target: T1, AXL (Homo sapiens, UniProt P30530); experiment: Tyrosine kinase inhibition assay; format: biochemical; conditions: for IC50: read-out: IC50 of compound; for inhibition at 1 µM: single concentration 1.0 μM, read-out: percent inhibition
T1 sequence (P30530 26-894): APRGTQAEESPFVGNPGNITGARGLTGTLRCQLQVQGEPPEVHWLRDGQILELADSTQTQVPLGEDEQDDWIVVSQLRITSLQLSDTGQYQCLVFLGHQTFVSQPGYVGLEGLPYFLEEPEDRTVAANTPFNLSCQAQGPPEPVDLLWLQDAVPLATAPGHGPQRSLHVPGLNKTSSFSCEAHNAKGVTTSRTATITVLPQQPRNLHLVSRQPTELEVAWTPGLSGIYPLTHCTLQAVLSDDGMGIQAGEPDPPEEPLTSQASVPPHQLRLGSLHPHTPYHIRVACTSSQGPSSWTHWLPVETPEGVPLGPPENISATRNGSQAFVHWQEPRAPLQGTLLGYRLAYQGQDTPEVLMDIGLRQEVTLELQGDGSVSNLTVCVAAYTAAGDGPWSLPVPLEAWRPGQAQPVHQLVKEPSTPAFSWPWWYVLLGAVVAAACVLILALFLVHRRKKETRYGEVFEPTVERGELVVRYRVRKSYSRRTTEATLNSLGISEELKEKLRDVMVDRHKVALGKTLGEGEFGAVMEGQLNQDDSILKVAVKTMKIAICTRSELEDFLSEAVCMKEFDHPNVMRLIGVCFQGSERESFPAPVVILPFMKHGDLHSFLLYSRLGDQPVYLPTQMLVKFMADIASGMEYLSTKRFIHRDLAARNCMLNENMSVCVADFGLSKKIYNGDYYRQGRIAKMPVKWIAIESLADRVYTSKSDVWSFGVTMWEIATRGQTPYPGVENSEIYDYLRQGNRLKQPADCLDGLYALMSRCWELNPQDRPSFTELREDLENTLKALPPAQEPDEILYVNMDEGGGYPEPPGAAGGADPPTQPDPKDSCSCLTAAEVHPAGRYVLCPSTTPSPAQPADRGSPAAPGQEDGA
Experimental: (§1) Tyrosine kinase inhibition assays were performed at ThermoFisher Life Technologies (Madison, WI, USA) using standard protocols (SelectScreen Biochemical Profiling Service, Thermo Fisher Scientific). ATP concentrations used were at the apparent Km. Test compounds were screened in 1% dimethylsulffoxide (DMSO) (final concentration) in the well. For 10-point titrations, 3-fold serial dilutions were conducted from the starting concentration of […]. All Peptide/Kinase Mixtures were diluted to a 2× working concentration in the appropriate Kinase Buffer. All ATP Solutions were diluted to a 4× working concentration in Kinase Buffer (50 mM HEPES pH 7.5, 0.01% BRIJ-35, 10 mM MgCl2, 1 mM EGTA). The apparent ATP Km was previously determined using a Z′-LYTE assay. The Development Reagent was diluted in Development Buffer.
(§2) The inhibition activities of compounds were determined in biochemical assays using single concentration (1.0 μM) measurements. The results were provided as percent inhibition values.

KDR (VEGFR2) = KDR (VEGFR2) (Homo sapiens, UniProt P35968); experiment: Tyrosine kinase inhibition assay; format: biochemical; conditions: for IC50: read-out: IC50 of compound; for inhibition at 1 µM: single concentration 1.0 μM, read-out: percent inhibition
Experimental: as §1, §2

MERTK (cMER) = target: T2, MERTK (cMER) (Homo sapiens, UniProt Q12866); experiment: Tyrosine kinase inhibition assay; format: biochemical; conditions: for IC50: read-out: IC50 of compound; for inhibition at 1 µM: single concentration 1.0 μM, read-out: percent inhibition
T2 sequence (Q12866 21-999): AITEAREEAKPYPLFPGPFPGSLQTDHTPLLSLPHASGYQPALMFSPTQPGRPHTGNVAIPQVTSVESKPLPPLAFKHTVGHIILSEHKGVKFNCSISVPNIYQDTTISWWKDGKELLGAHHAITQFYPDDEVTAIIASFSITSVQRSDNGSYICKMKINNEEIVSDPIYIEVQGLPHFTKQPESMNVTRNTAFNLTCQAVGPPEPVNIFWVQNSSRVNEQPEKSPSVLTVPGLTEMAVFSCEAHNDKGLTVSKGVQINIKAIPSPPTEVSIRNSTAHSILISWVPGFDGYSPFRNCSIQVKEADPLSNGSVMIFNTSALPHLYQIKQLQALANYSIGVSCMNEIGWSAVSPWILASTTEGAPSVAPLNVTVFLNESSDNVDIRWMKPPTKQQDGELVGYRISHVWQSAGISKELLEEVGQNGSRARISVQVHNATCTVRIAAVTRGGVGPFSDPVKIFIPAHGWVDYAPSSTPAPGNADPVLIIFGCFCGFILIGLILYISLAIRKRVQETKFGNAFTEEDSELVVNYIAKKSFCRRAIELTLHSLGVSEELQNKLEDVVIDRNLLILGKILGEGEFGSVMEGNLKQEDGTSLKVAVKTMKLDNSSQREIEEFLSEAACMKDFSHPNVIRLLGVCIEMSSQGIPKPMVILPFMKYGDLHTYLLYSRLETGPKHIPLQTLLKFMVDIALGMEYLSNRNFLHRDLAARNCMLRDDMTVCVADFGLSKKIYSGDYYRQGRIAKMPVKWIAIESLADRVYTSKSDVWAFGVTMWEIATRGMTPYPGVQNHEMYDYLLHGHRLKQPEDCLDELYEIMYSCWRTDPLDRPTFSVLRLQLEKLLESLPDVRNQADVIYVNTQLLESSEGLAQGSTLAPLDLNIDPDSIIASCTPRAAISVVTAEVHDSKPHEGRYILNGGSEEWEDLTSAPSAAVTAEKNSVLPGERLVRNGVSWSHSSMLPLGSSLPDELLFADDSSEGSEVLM
Experimental: as §1, §2

MET (cMet) = MET (cMet) (Homo sapiens, UniProt P08581); experiment: Tyrosine kinase inhibition assay; format: biochemical; conditions: for IC50: read-out: IC50 of compound; for inhibition at 1 µM: single concentration 1.0 μM, read-out: percent inhibition
Experimental: as §1, §2

CT26 tumor = experiment: Experimental tumor model and therapies, CT26 tumor-bearing mice;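 further: male Balb/c mice bearing CT26 grafts in the back, treated once tumors reached roughly 250–300 mm^3, tumor volume measured twice weekly, response graded by fold growth after treatment end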
Experimental: LLC1 was grown at 37° C. under humidified air supplemented with CO2 in DMEM (#10-013-CM, Corning®) containing 10% heat inactivated fetal calf serum, and 1× concentration of MycoZap Antibiotics. CT26 was grown at 37° C. under humidified air supplemented with CO2 in RPMI1640 (cat. #10-040-CM, Corning®) containing 10% heat inactivated fetal calf serum, and 1× concentration of MycoZap Antibiotics. After the cancer cell culture was completed, it was implanted (1×10^6 cells/mouse) into the back of the mouse for growth.
Six- to eight-week-old male Balb/c mice (National Laboratory Animal Center, Taiwan) were used for all animal experiments. […] Tumors were allowed to grow for 10-12 days (tumor size about 250-300 mm^3) before randomization and treatment. The tumor volume of the mice was measured once every three or four days (twice/week). Animals were euthanized when tumors reached more than 3000 mm^3 in diameter. […] Relapse/recurrence was defined as when tumor growth reappeared and tumor size reached at least 5 fold in mice with CR or PR response after secondary tumor assessment. In this study, we defined Complete Response (CR, <0.5 time tumor growth in the tumor bearing mice at tumor assessment after the end of treatment); Partial Response (PR, tumor size ≥0.5 time tumor growth, but <1 time tumor growth in the tumor bearing mice at tumor assessment after the end of treatment); Stable Disease (SD, ≥1 time tumor growth, but <5 times tumor growth in the tumor bearing mice at tumor assessment after the end of treatment); and Progressive Disease (PD, ≥5 times tumor growth in the tumor bearing mice at tumor assessment after the end of treatment) for the evaluation of treatment efficacy.

[1] = FIG. 5E, Cbo-23 30 mg/kg, Regorafenib 30 mg/kg, GNTbm-38-K30 20 mg/kg in combination, 5 mg/kg alone
[2] = FIG. 6E, Cbo-23 30 mg/kg, Cabozantinib 30 mg/kg, GNTbm-38-K30 20 mg/kg
[3] = FIG. 6F, Cbo-23 30 mg/kg, Cabozantinib 30 mg/kg, GNTbm-38-K30 20 mg/kg
[4] = FIG. 2E, oral once daily, Cabozantinib 30 mg/kg, Cbo-02 30 mg/kg, Chidamide-K30 50 mg/kg
[5] = FIG. 3E, oral 12 days, Cabozantinib 30 mg/kg, Cbo-20 30 mg/kg, GNTbm-38-K30 40 mg/kg

Chain of KDR (VEGFR2) (P35968 20-1356): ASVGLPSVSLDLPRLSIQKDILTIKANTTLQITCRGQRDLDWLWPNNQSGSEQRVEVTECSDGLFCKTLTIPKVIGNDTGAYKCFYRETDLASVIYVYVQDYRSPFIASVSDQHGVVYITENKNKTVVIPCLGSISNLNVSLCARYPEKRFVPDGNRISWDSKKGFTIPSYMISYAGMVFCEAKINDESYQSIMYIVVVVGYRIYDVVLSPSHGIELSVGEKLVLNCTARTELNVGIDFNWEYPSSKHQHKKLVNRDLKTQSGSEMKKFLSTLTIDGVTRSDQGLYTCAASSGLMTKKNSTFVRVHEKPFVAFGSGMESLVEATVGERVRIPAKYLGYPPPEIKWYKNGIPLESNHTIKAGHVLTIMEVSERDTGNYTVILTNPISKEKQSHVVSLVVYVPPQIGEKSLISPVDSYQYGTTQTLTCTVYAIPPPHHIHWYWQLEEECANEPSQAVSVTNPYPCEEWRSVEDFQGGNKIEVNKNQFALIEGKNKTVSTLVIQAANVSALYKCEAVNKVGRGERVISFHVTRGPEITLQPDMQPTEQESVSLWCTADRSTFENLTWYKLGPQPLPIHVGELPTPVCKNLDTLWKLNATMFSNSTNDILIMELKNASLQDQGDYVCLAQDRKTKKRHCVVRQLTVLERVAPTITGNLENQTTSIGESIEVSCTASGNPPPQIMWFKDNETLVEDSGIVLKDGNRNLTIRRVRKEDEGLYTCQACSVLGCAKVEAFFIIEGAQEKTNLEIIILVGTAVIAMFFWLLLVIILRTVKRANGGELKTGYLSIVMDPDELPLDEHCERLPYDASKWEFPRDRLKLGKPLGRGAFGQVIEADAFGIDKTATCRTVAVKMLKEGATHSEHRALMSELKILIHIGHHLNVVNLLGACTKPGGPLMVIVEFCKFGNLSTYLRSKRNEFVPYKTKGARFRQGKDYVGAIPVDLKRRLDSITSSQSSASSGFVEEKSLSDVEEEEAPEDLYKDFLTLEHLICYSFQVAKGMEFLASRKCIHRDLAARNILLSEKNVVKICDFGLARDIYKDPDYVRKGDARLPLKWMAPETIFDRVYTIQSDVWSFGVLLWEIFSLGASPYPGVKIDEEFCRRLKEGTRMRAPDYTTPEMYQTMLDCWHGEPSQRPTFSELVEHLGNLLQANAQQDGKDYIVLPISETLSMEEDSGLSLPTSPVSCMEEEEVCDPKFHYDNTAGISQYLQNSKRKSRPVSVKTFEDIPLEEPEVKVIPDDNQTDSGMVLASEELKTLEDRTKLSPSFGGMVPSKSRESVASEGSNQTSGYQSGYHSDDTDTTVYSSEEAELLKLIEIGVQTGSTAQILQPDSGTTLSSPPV
Chain of MET (cMet) (P08581 25-1390): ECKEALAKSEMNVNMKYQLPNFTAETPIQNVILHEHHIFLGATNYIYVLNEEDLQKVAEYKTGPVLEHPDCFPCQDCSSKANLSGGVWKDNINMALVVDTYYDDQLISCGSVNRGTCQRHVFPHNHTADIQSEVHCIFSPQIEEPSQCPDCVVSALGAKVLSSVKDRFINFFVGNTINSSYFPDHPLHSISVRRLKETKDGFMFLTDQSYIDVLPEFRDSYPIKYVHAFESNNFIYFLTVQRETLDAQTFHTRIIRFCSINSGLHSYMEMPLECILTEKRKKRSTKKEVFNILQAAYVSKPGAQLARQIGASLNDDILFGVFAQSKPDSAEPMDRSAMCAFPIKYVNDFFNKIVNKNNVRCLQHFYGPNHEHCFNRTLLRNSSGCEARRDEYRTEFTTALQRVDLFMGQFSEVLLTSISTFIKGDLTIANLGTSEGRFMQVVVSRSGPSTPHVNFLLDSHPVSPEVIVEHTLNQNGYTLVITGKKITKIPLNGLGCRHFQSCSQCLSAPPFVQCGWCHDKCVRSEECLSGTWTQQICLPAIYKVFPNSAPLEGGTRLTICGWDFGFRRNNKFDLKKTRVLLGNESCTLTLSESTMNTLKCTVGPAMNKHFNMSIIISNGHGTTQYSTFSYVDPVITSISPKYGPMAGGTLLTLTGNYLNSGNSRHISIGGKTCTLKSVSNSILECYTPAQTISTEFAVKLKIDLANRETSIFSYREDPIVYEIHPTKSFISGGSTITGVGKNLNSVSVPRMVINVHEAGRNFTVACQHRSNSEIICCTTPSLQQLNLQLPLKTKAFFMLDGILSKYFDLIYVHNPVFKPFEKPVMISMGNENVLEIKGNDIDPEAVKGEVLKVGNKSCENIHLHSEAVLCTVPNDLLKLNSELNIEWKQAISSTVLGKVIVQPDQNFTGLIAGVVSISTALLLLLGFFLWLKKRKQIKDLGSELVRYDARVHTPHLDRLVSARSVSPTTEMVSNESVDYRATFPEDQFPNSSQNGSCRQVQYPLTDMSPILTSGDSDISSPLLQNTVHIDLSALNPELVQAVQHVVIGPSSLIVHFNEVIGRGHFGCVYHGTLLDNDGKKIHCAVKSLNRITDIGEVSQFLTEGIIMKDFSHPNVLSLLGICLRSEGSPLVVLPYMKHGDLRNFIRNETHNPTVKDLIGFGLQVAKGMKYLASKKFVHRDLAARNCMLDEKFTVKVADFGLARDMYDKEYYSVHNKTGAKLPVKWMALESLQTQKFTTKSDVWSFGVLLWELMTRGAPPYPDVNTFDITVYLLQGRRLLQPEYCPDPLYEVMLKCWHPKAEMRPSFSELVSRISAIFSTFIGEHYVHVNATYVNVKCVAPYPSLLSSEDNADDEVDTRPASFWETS

SMILES | IC50 (AXL) [nM] | inhibition at 1 µM (AXL) [%] | IC50 (KDR (VEGFR2)) [nM] | inhibition at 1 µM (KDR (VEGFR2)) [%] | IC50 (MERTK (cMER)) [nM] | inhibition at 1 µM (MERTK (cMER)) [%] | IC50 (MET (cMet)) [nM] | inhibition at 1 µM (MET (cMet)) [%] | CR (number of mice) (CT26 tumor; [2]) | ORR (CT26 tumor; [2]) [%] | PD (number of mice) (CT26 tumor; [2]) | PR (number of mice) (CT26 tumor; [2]) | Survival Rate (CT26 tumor; [3]) [%] | ORR (CT26 tumor; [4]) [%] | also measured
COc1cc2nccc(Oc3ccc(NC(=O)C4(C(=O)Nc5ccc(F)cc5)CC4)cc3F)c2cc1Oc1ccc(N)cc1F [Cbo-23] | 5.42 | 106 | 29.2 | 98 | 3.72 | 98 | 35.2 | 98 | 3 | 30 | 7 | 0 | 20 | – | CR (number of mice) (CT26 tumor; [1]): 2; ORR (CT26 tumor; [1]): 22%; PD (number of mice) (CT26 tumor; [1]): 7; PR (number of mice) (CT26 tumor; [1]): 0; Survival Rate (CT26 tumor; FIG. 5F, Cbo-23 30 mg/kg, Regorafenib 30 mg/kg, GNTbm-38-K30 20 mg/kg in combination, 5 mg/kg alone): 11%; recurrence rate (CT26 tumor; FIG. 5G, day 60, Cbo-23 30 mg/kg, Regorafenib 30 mg/kg, GNTbm-38-K30 20 mg/kg in combination, 5 mg/kg alone): 50%
COc1cc2nccc(Oc3ccc(NC(=O)C4(NC(=O)c5ccc(F)cc5)CC4)cc3F)c2cc1Oc1ccc(N)cc1F [Cbo-10] | – | 98 | – | 98 | – | 95 | – | 95 | – | – | – | – | – | – | –
COc1cc2nccc(Oc3ccc(NC(=O)C4(NC(=O)c5ccc(F)cc5)CC4)cc3F)c2cc1OC [Cbo-02, N-(1-((4-((6,7-diMethoxyquinolin-4-yl)oxy)-3-fluorophenyl)carbamoyl)cyclopropyl)-4-fluorobenzamide] | – | 91 | – | 96 | – | 100 | – | 100 | – | – | – | – | – | 10 | –
CNC(=O)c1cc2c(Oc3ccc(NC(=O)C4(C(=O)Nc5ccc(F)cc5)CC4)cc3)ccnc2cc1OC [Zanzalintinib, reference compound] | 1.41 | – | 2.43 | – | 6.96 | – | 4.26 | – | – | – | – | – | – | – | –
COc1cc2nccc(Oc3ccc(NC(=O)C4(NC(=O)c5ccc(F)cc5)CC4)cc3F)c2cc1Oc1c(F)cc(N)cc1F [Cbo-14] | – | 96 | – | 100 | – | 97 | – | 97 | – | – | – | – | – | – | –
COc1cc2nccc(Oc3ccc(NC(=O)C4(C(=O)Nc5ccc(F)cc5)CC4)cc3)c2cc1OC [Cabozantinib, reference compound] | – | – | – | – | – | – | – | – | 3 | 44 | 2 | 1 | 33 | 0 | CR (number of mice) (CT26 tumor; [5]): 0; ORR (CT26 tumor; [5]): 0%; PD (number of mice) (CT26 tumor; [5]): 5; PR (number of mice) (CT26 tumor; [5]): 0; Survival Rate (CT26 tumor; FIG. 3F, Cabozantinib 30 mg/kg, Cbo-20 30 mg/kg, GNTbm-38-K30 40 mg/kg): 0%; ORR (CT26 tumor; FIG. 4D, Cabozantinib 30 mg/kg, Cbo-22 30 mg/kg, GNTbm-38-K30 40 mg/kg): 0%; Survival Rate (CT26 tumor; FIG. 4E, Cabozantinib 30 mg/kg, Cbo-22 30 mg/kg, GNTbm-38-K30 40 mg/kg): 0%
